Measured values: patent US20200095241A1, “SUBSTITUTED 1,2,4-THIADIAZOLYLPYRROLONES AND 1,2,4-THIADIAZOLYLHYDANTOINS AND SALTS THEREOF AND USE THEREOF AS HERBICIDES” (Bayer CropScience Aktiengesellschaft, priority 2016, published 2020)

Tests used:
[1] = tested on: Abutilon theophrasti; assay: Post-emergence herbicidal action; format: in vivo; conditions: Abutilon theophrasti, 504 h, 1280 g/ha, about 3 weeks after treatment, read-out: Abutilon theophrasti, herbicidal activity rated visually
Procedure, shortened: (§1)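 Visual ratings of activity, from 0% (like untreated controls) to 100% (plants dead), were made about 3 weeks after treatment. Compounds, formulated as wettable powders or emulsion concentrates with 0.5% additive, were sprayed onto green parts at 1280 g/ha or 320 g/ha in 600 l/ha water. Plants had been sown in sandy loam and were at the one-leaf stage (2 to 3 weeks old).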

[2] = tested on: Alopecurus myosuroides; assay: Post-emergence herbicidal action; format: in vivo; conditions: 1280 g/ha, about 3 weeks after treatment
Procedure, shortened: as §1

[3] = tested on: Amaranthus retroflexus; assay: Post-emergence herbicidal action; format: in vivo; conditions: 1280 g/ha, about 3 weeks after treatment
Procedure, shortened: as §1

[4] = tested on: Echinochloa crus-galli; assay: Post-emergence herbicidal action; format: in vivo; conditions: 1280 g/ha, about 3 weeks after treatment
Procedure, shortened: as §1

[5] = tested on: Hordeum murinum; assay: Post-emergence herbicidal action; format: in vivo; conditions: 1280 g/ha, about 3 weeks after treatment
Procedure, shortened: as §1

[6] = tested on: Matricaria inodora; assay: Post-emergence herbicidal action; format: in vivo; conditions: 1280 g/ha, about 3 weeks after treatment
Procedure, shortened: as §1

[7] = tested on: Pharbitis purpurea; assay: Post-emergence herbicidal action; format: in vivo; conditions: 1280 g/ha, about 3 weeks after treatment
Procedure, shortened: as §1

[8] = tested on: Polygonum convolvulus; assay: Post-emergence herbicidal action; format: in vivo; conditions: 1280 g/ha, about 3 weeks after treatment
Procedure, shortened: as §1

[9] = tested on: Setaria viridis; assay: Post-emergence herbicidal action; format: in vivo; conditions: Setaria viridis, 504 h, 1280 g/ha, about 3 weeks after treatment, read-out: Setaria viridis, herbicidal activity rated visually
Procedure, shortened: as §1

[10] = tested on: Stellaria media; assay: Post-emergence herbicidal action; format: in vivo; conditions: Stellaria media, 504 h, 1280 g/ha, about 3 weeks after treatment, read-out: Stellaria media, herbicidal activity rated visually
Procedure, shortened: as §1

[11] = tested on: Veronica persica; assay: Post-emergence herbicidal action; format: in vivo; conditions: 1280 g/ha, about 3 weeks after treatment
Procedure, shortened: as §1

[12] = tested on: Viola tricolor; assay: Post-emergence herbicidal action; format: in vivo; conditions: 504 h, 1280 g/ha, about 3 weeks after treatment, read-out: Viola tricolor, herbicidal activity rated visually
Procedure, shortened: as §1

[13] = tested on: Alopecurus myosuroides; assay: Pre-emergence herbicidal action; format: in vivo; conditions: 1280 g/ha, after about 3 weeks
Procedure, shortened: (§2)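 WP or EC formulations were sprayed onto the soil surface over sown seeds as aqueous suspension or emulsion with 0.5% additive at 600 l/ha water, at 1280 or 320 g/ha. Pots were kept in a greenhouse for about 3 weeks. Damage was then scored visually against untreated controls as % activity (100% = dead, 0% = like control).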

[14] = tested on: Cyperus esculentus; assay: Pre-emergence herbicidal action; format: in vivo; conditions: 1280 g/ha, after about 3 weeks
Procedure, shortened: as §2

[15] = tested on: Echinochloa crus-galli; assay: Pre-emergence herbicidal action; format: in vivo; conditions: 1280 g/ha, after about 3 weeks
Procedure, shortened: as §2

[16] = tested on: Matricaria inodora; assay: Pre-emergence herbicidal action; format: in vivo; conditions: Tripleurospermum inodorum, 504 h, 1280 g/ha, after about 3 weeks, read-out: Matricaria inodora, herbicidal effect scored visually
Procedure, shortened: as §2

[17] = tested on: Polygonum convolvulus; assay: Pre-emergence herbicidal action; format: in vivo; conditions: 1280 g/ha, after about 3 weeks
Procedure, shortened: as §2

[18] = tested on: Setaria viridis; assay: Pre-emergence herbicidal action; format: in vivo; conditions: Setaria viridis, 504 h, 1280 g/ha, after about 3 weeks, read-out: Setaria viridis, herbicidal effect scored visually
Procedure, shortened: as §2

[19] = tested on: Stellaria media; assay: Pre-emergence herbicidal action; format: in vivo; conditions: Stellaria media, 504 h, 1280 g/ha, after about 3 weeks, read-out: Stellaria media, herbicidal effect scored visually
Procedure, shortened: as §2

[20] = tested on: Viola tricolor; assay: Pre-emergence herbicidal action; format: in vivo; conditions: Viola tricolor, 504 h, 1280 g/ha, after about 3 weeks, read-out: Viola tricolor, herbicidal effect scored visually
Procedure, shortened: as §2

[21] = target: T1, photosystem II (PS II) (Spinacia oleracea, UniProt P69560); assay: Measurement of the PS II activity in thylakoid membranes (DCPIP reduction); format: biochemical; conditions: 100 μM test compound, spinach thylakoid membranes, DCPIP 120 μM, 10 min at 22° C. with exposure to light; read-out: Effect (inhibition of PS II activity)
T1 construct: the chloroplasts were osmotically ruptured and the thylakoid membranes were then obtained by centrifugation; from tissue; host or cells: fresh spinach leaves; thylakoid membranes isolated from chloroplasts
Procedure, shortened: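 Thylakoid membranes from spinach leaves in 50 mM phosphate buffer pH 6.8, 10 mM KCl; light-driven reduction of 120 μM DCPIP followed at 595 nm for 10 min at 22 °C. Compounds tested at 100 μM stock in DMSO (2.5% final DMSO), with activity binned by % inhibition classes.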

Question: Which pest or weed control at 1280 g/ha [1] does the source give for `CC1=C(C)C(O)N(c2nc(C(C)C)ns2)C1=O` (stereo not drawn) [I.2-5, 3,4-Dimethyl-5-hydroxy-1-(3-(isopropyl)-1,2,4-thiadiazol-5-yl)-1,5-dihydro-2H-pyrrol-2-one] here?
Answer: 100%

Question: And the “Alopecurus myosuroides, herbicidal activity rated visually” value [2]?
Answer: 80%

Question: And the “Amaranthus retroflexus, herbicidal activity rated visually” value [3]?
Answer: 100%

Question: And the “Echinochloa crus-galli, herbicidal activity rated visually” value [4]?
Answer: 90%

Question: What about the “Hordeum murinum, herbicidal activity rated visually” value [5] of the same compound?
Answer: 100%

Question: What about the “Matricaria inodora, herbicidal activity rated visually” value [6] of the same compound?
Answer: 100%

Question: And the “Pharbitis purpurea, herbicidal activity rated visually” value [7]?
Answer: 100%

Question: What about the “Polygonum convolvulus, herbicidal activity rated visually” value [8] of the same compound?
Answer: 80%

Question: What about the pest or weed control at 1280 g/ha [9] of the same compound?
Answer: 100%

Question: What about the pest or weed control at 1280 g/ha [10] of the same compound?
Answer: 100%

Question: And the “Veronica persica, herbicidal activity rated visually” value [11]?
Answer: 90%

Question: What about the pest or weed control at 1280 g/ha [12] of the same compound?
Answer: 100%

Question: What about the “Alopecurus myosuroides, herbicidal effect scored visually” value [13] of the same compound?
Answer: 80%

Question: What about the “Cyperus esculentus, herbicidal effect scored visually” value [14] of the same compound?
Answer: 90%

Question: And the “Echinochloa crus-galli, herbicidal effect scored visually” value [15]?
Answer: 80%

Question: And the pest or weed control at 1280 g/ha [16]?
Answer: 100%

Question: And the “Polygonum convolvulus, herbicidal effect scored visually” value [17]?
Answer: 100%

Question: What about the pest or weed control at 1280 g/ha [18] of the same compound?
Answer: 100%

Question: And the pest or weed control at 1280 g/ha [19]?
Answer: 100%

Question: What about the pest or weed control at 1280 g/ha [20] of the same compound?
Answer: 100%

Question: What about the inhibition at 100 µM (stock) [21] of the same compound?
Answer: > 90%
